Broadly, the IC50 is the concentration that inhibits the measured activity by half. Lower therefore signals higher potency. For orientation: % Inhibition means the change of the read-out against control, counted positive when it falls. Read a low % Inhibition as a response near the control.

The structures appear in SMILES notation. Bridge positions count the residues as written; N and C are the ends. Square brackets hold non-standard residues; d marks the D form. Peptide text beside a SMILES is read from it.

One experiment relates to H1N1 A1/Malaysia/302/1954. Particulars: A1/Malaysia/302/1954, 48 h, 500 μM.
On to `C[C@H](O)[C@H]1NC(=O)[C@H](N)CSSC[C@H](C(=O)O)NC(=O)[C@@H](CC(N)=O)NC(=O)[C@@H](Cc2ccccc2)NC(=O)[C@@H](Cc2ccccc2)NC(=O)[C@@H](CCCNC(=N)N)NC(=O)[C@@H](CO)NC(=O)[C@@H](CCCCN)NC1=O` [PSP 5, H-ctksrffnc-OH] (H-[dC][dT][dK][dS][dR][dF][dF][dN][dC]-OH; disulfide 1-9), for which the “% inhibition H1N1” value is given as 47.1%.

The subject of the next experiment is H3N8 A/Miami/2/63. Particulars: A/Miami/2/63, 48 h, 500 μM.
Regarding `C[C@H](O)[C@H]1NC(=O)[C@H](N)CSSC[C@H](C(=O)O)NC(=O)[C@@H](CC(N)=O)NC(=O)[C@@H](Cc2ccccc2)NC(=O)[C@@H](Cc2ccccc2)NC(=O)[C@@H](CCCNC(=N)N)NC(=O)[C@@H](CO)NC(=O)[C@@H](CCCCN)NC1=O` [PSP 5, H-ctksrffnc-OH] (H-[dC][dT][dK][dS][dR][dF][dF][dN][dC]-OH; disulfide 1-9), the “% inhibition H3N8” value turned out to be 77.3%.

The subject of another experiment is H3N2 A/HK/8/1968. Particulars: A/HK/8/1968, 48 h, 500 μM.
As to `C[C@H](O)[C@H]1NC(=O)[C@H](N)CSSC[C@H](C(=O)O)NC(=O)[C@@H](CC(N)=O)NC(=O)[C@@H](Cc2ccccc2)NC(=O)[C@@H](Cc2ccccc2)NC(=O)[C@@H](CCCNC(=N)N)NC(=O)[C@@H](CO)NC(=O)[C@@H](CCCCN)NC1=O` [PSP 5, H-ctksrffnc-OH] (H-[dC][dT][dK][dS][dR][dF][dF][dN][dC]-OH; disulfide 1-9), the “% inhibition H3N2” value is recorded as 45.5%.

For a further experiment, the system named is H1N1 A/PR/8/1934. Particulars: A/PR/8/1934, 48 h.
`CC[C@@H](C)[C@H]1NC(=O)[C@@H](Cc2ccccc2)NC(=O)[C@@H]([C@H](C)O)NC(=O)[C@@H](Cc2ccccc2)NC(=O)[C@@H](Cc2c[nH]c3ccccc23)NC(=O)[C@@H](Cc2c[nH]c3ccccc23)NC(=O)[C@H](NC(=O)[C@H](CCCCN)NC(=O)[C@H](CCCCN)NC(=O)[C@H](CCCNC(=N)N)NC(=O)[C@@H](N)CCCNC(=N)N)CSSC[C@H](C(=O)O)NC(=O)[C@@H](CC(N)=O)NC1=O` [PSP V A19, H-RRKKcwwftfinc-OH] (H-RRKK[dC][dW][dW][dF][dT][dF][dI][dN][dC]-OH; disulfide 5-13): the IC50 came to 20 nM.

The experiment is the same for the next values; noted with them: A/PR/8/1934, 48 h, 1 μM.
Turning to `CC[C@@H](C)[C@H]1NC(=O)[C@@H](Cc2ccccc2)NC(=O)[C@@H]([C@H](C)O)NC(=O)[C@@H](Cc2ccccc2)NC(=O)[C@@H](Cc2c[nH]c3ccccc23)NC(=O)[C@@H](Cc2c[nH]c3ccccc23)NC(=O)[C@H](NC(=O)[C@H](CCCCN)NC(=O)[C@H](CCCCN)NC(=O)[C@H](CCCNC(=N)N)NC(=O)[C@@H](N)CCCNC(=N)N)CSSC[C@H](C(=O)O)NC(=O)[C@@H](C(C)C)NC1=O` [PSP VI A18, H-RRKKcwwftfivc-OH] (H-RRKK[dC][dW][dW][dF][dT][dF][dI][dV][dC]-OH; disulfide 5-13), the “% Inhibition” value was determined as 53%. On to `CC[C@@H](C)[C@H]1NC(=O)[C@@H](Cc2ccccc2)NC(=O)[C@@H]([C@H](C)O)NC(=O)[C@@H](Cc2ccccc2)NC(=O)[C@@H](Cc2c[nH]c3ccccc23)NC(=O)[C@@H](Cc2c[nH]cn2)NC(=O)[C@H](NC(=O)[C@H](CCCCN)NC(=O)[C@H](CCCCN)NC(=O)[C@H](CCCNC(=N)N)NC(=O)[C@@H](N)CCCNC(=N)N)CSSC[C@H](C(=O)O)NC(=O)[C@@H](CC(N)=O)NC1=O` [PSP V A7, H-RRKKchwitfinc-OH] (H-RRKK[dC][dH][dW][dF][dT][dF][dI][dN][dC]-OH; disulfide 5-13), for which the “% Inhibition” value amounted to 67%. On to `CC[C@@H](C)[C@H]1NC(=O)[C@@H](Cc2ccccc2)NC(=O)[C@@H]([C@H](C)O)NC(=O)[C@@H](Cc2ccccc2)NC(=O)[C@@H](Cc2c[nH]c3ccccc23)NC(=O)[C@@H](Cc2c[nH]c3ccccc23)NC(=O)[C@H](NC(=O)[C@H](CCCCN)NC(=O)[C@H](CCCCN)NC(=O)[C@H](CCCNC(=N)N)NC(=O)[C@@H](N)CCCNC(=N)N)CSSC[C@H](C(=O)O)NC(=O)[C@@H](CCSC)NC1=O` [PSP VI A11, H-RRKKcwwftfimc-OH] (H-RRKK[dC][dW][dW][dF][dT][dF][dI][dM][dC]-OH; disulfide 5-13), for which the “% Inhibition” value was 79%. The same measure, in the same setting: the result for `CC[C@@H](C)[C@H]1NC(=O)[C@@H](Cc2ccccc2)NC(=O)[C@@H]([C@H](C)O)NC(=O)[C@@H](Cc2ccccc2)NC(=O)[C@@H](Cc2c[nH]c3ccccc23)NC(=O)[C@@H](Cc2c[nH]c3ccccc23)NC(=O)[C@H](NC(=O)[C@H](CCCCN)NC(=O)[C@H](CCCCN)NC(=O)[C@H](CCCNC(=N)N)NC(=O)[C@@H](N)CCCNC(=N)N)CSSC[C@H](C(=O)O)NC(=O)[C@@H](CCC(=O)O)NC1=O` [PSP VI A4, H-RRKKcwwftfiec-OH] (H-RRKK[dC][dW][dW][dF][dT][dF][dI][dE][dC]-OH; disulfide 5-13) reads 65%. Regarding `CC[C@@H](C)[C@H]1NC(=O)[C@@H](Cc2ccccc2)NC(=O)[C@@H]([C@H](C)O)NC(=O)[C@@H](Cc2ccccc2)NC(=O)[C@@H](Cc2c[nH]c3ccccc23)NC(=O)[C@@H](CCSC)NC(=O)[C@H](NC(=O)[C@H](CCCCN)NC(=O)[C@H](CCCCN)NC(=O)[C@H](CCCNC(=N)N)NC(=O)[C@@H](N)CCCNC(=N)N)CSSC[C@H](C(=O)O)NC(=O)[C@@H](CC(N)=O)NC1=O` [PSP V A11, M-RRKKcmwftfinc-OH] (H-RRKK[dC][dM][dW][dF][dT][dF][dI][dN][dC]-OH; disulfide 5-13; N-terminus assumed), the “% Inhibition” value came to 92%.

`CC[C@@H](C)[C@H]1NC(=O)[C@@H](Cc2ccccc2)NC(=O)[C@@H]([C@H](C)O)NC(=O)[C@@H](Cc2ccccc2)NC(=O)[C@@H](Cc2c[nH]c3ccccc23)NC(=O)[C@@H](Cc2c[nH]c3ccccc23)NC(=O)[C@H](NC(=O)[C@H](CCCCN)NC(=O)[C@H](CCCCN)NC(=O)[C@H](CCCNC(=N)N)NC(=O)[C@@H](N)CCCNC(=N)N)CSSC[C@H](C(=O)O)NC(=O)[C@@H](CCCCN)NC1=O` [PSP VI A9, H-RRKKcwwftfikc-OH] (H-RRKK[dC][dW][dW][dF][dT][dF][dI][dK][dC]-OH; disulfide 5-13): the “% Inhibition” value is listed as 11%. The same measure, in the same setting: for `CC[C@@H](C)[C@H]1NC(=O)[C@@H](Cc2ccccc2)NC(=O)[C@@H]([C@H](C)O)NC(=O)[C@@H](Cc2ccccc2)NC(=O)[C@@H](Cc2c[nH]c3ccccc23)NC(=O)[C@@H](Cc2c[nH]c3ccccc23)NC(=O)[C@H](NC(=O)[C@H](CCCCN)NC(=O)[C@H](CCCCN)NC(=O)[C@H](CCCNC(=N)N)NC(=O)[C@@H](N)CCCNC(=N)N)CSSC[C@H](C(=O)O)NC(=O)[C@@H](Cc2ccc(O)cc2)NC1=O` [PSP VI A20, H-RRKKcwwftfiyc-OH] (H-RRKK[dC][dW][dW][dF][dT][dF][dI][dY][dC]-OH; disulfide 5-13) the value was 53%; for `CC[C@@H](C)[C@H]1NC(=O)[C@@H](Cc2ccccc2)NC(=O)[C@@H]([C@H](C)O)NC(=O)[C@@H](Cc2ccccc2)NC(=O)[C@@H](Cc2c[nH]c3ccccc23)NC(=O)[C@@H](CC(=O)O)NC(=O)[C@H](NC(=O)[C@H](CCCCN)NC(=O)[C@H](CCCCN)NC(=O)[C@H](CCCNC(=N)N)NC(=O)[C@@H](N)CCCNC(=N)N)CSSC[C@H](C(=O)O)NC(=O)[C@@H](CC(N)=O)NC1=O` [PSP V A3, H-RRKKcdwftfinc-OH] (H-RRKK[dC][dD][dW][dF][dT][dF][dI][dN][dC]-OH; disulfide 5-13), less than 20%; for `CC[C@@H](C)[C@H]1NC(=O)[C@@H](Cc2ccccc2)NC(=O)[C@@H]([C@H](C)O)NC(=O)[C@@H](Cc2ccccc2)NC(=O)[C@@H](Cc2c[nH]c3ccccc23)NC(=O)[C@@H](CS)NC(=O)[C@H](NC(=O)[C@H](CCCCN)NC(=O)[C@H](CCCCN)NC(=O)[C@H](CCCNC(=N)N)NC(=O)[C@@H](N)CCCNC(=N)N)CSSC[C@H](C(=O)O)NC(=O)[C@@H](CC(N)=O)NC1=O` [PSP V A2, H-RRKKccwftfinc-OH] (H-RRKK[dC][dC][dW][dF][dT][dF][dI][dN][dC]-OH; disulfide 5-13), less than 20%.

As for `CC[C@@H](C)[C@H]1NC(=O)[C@@H](Cc2ccccc2)NC(=O)[C@@H]([C@H](C)O)NC(=O)[C@@H](Cc2ccccc2)NC(=O)[C@@H](Cc2c[nH]c3ccccc23)NC(=O)[C@@H](Cc2c[nH]c3ccccc23)NC(=O)[C@H](NC(=O)[C@H](CCCCN)NC(=O)[C@H](CCCCN)NC(=O)[C@H](CCCNC(=N)N)NC(=O)[C@@H](N)CCCNC(=N)N)CSSC[C@H](C(=O)O)NC(=O)[C@@H](CO)NC1=O` [PSP VI A16, H-RRKKcwwftfisc-OH] (H-RRKK[dC][dW][dW][dF][dT][dF][dI][dS][dC]-OH; disulfide 5-13), the “% Inhibition” value amounted to 74%. Same read-out and setting: for `CC[C@@H](C)[C@H]1NC(=O)[C@@H](Cc2ccccc2)NC(=O)[C@@H]([C@H](C)O)NC(=O)[C@@H](Cc2ccccc2)NC(=O)[C@@H](Cc2c[nH]c3ccccc23)NC(=O)[C@@H](Cc2c[nH]c3ccccc23)NC(=O)[C@H](NC(=O)[C@H](CCCCN)NC(=O)[C@H](CCCCN)NC(=O)[C@H](CCCNC(=N)N)NC(=O)[C@@H](N)CCCNC(=N)N)CSSC[C@H](C(=O)O)NC(=O)[C@@H](Cc2ccccc2)NC1=O` [PSP VI A5, H-RRKKcwwftfifc-OH] (H-RRKK[dC][dW][dW][dF][dT][dF][dI][dF][dC]-OH; disulfide 5-13) the value was 60%; for `CC[C@@H](C)[C@H]1NC(=O)[C@@H](Cc2ccccc2)NC(=O)[C@@H]([C@H](C)O)NC(=O)[C@@H](Cc2ccccc2)NC(=O)[C@@H](Cc2c[nH]c3ccccc23)NC(=O)[C@@H](Cc2c[nH]c3ccccc23)NC(=O)[C@H](NC(=O)[C@H](CCCCN)NC(=O)[C@H](CCCCN)NC(=O)[C@H](CCCNC(=N)N)NC(=O)[C@@H](N)CCCNC(=N)N)CSSC[C@H](C(=O)O)NC(=O)[C@@H](CC(=O)O)NC1=O` [PSP VI A3, H-RRKKcwwftfidc-OH] (H-RRKK[dC][dW][dW][dF][dT][dF][dI][dD][dC]-OH; disulfide 5-13), 66%; for `CC[C@@H](C)[C@H]1NC(=O)[C@@H](Cc2ccccc2)NC(=O)[C@@H]([C@H](C)O)NC(=O)[C@@H](Cc2ccccc2)NC(=O)[C@@H](Cc2c[nH]c3ccccc23)NC(=O)[C@@H](Cc2c[nH]c3ccccc23)NC(=O)[C@H](NC(=O)[C@H](CCCCN)NC(=O)[C@H](CCCCN)NC(=O)[C@H](CCCNC(=N)N)NC(=O)[C@@H](N)CCCNC(=N)N)CSSC[C@H](C(=O)O)NC(=O)[C@@H](CC(N)=O)NC1=O` [PSP V A19, H-RRKKcwwftfinc-OH] (H-RRKK[dC][dW][dW][dF][dT][dF][dI][dN][dC]-OH; disulfide 5-13), 97%. On the same count and under the same terms, for `CC[C@@H](C)[C@H]1NC(=O)[C@@H](Cc2ccccc2)NC(=O)[C@@H]([C@H](C)O)NC(=O)[C@@H](Cc2ccccc2)NC(=O)[C@@H](Cc2c[nH]c3ccccc23)NC(=O)[C@@H](Cc2c[nH]c3ccccc23)NC(=O)[C@H](NC(=O)[C@H](CCCCN)NC(=O)[C@H](CCCCN)NC(=O)[C@H](CCCNC(=N)N)NC(=O)[C@@H](N)CCCNC(=N)N)CSSC[C@H](C(=O)O)NC(=O)[C@@H](CCC(N)=O)NC1=O` [PSP VI A14, H-RRKKcwwftfiqc-OH] (H-RRKK[dC][dW][dW][dF][dT][dF][dI][dQ][dC]-OH; disulfide 5-13) the value was 85%.

Take `CC[C@@H](C)[C@H]1NC(=O)[C@@H](Cc2ccccc2)NC(=O)[C@@H]([C@H](C)O)NC(=O)[C@@H](Cc2ccccc2)NC(=O)[C@@H](Cc2c[nH]c3ccccc23)NC(=O)[C@@H](Cc2c[nH]c3ccccc23)NC(=O)[C@H](NC(=O)[C@H](CCCCN)NC(=O)[C@H](CCCCN)NC(=O)[C@H](CCCNC(=N)N)NC(=O)[C@@H](N)CCCNC(=N)N)CSSC[C@H](C(=O)O)NC(=O)[C@@H](Cc2c[nH]cn2)NC1=O` [PSP VI A7, H-RRKKcwwftfihc-OH] (H-RRKK[dC][dW][dW][dF][dT][dF][dI][dH][dC]-OH; disulfide 5-13): the “% Inhibition” value was found to be 38.5%.

The record behind these values is US10538554B2, “Peptides and uses therefor as antiviral agents” (priority 2015, dated 2020).
